Test results from paper PMC4890880 (ACS infectious diseases, 2016).
Read-outs that look alike come from different tables or passages of the source.

Assays:
[1] = test system: Plasmodium berghei (Pb-Luc) exoerythrocytic-stage parasites; details: for IC50: read-out: PbLuc_IC50
[2] = test system: HepG2-A16-CD81EGFP cells; details: for IC50: read-out: Tox_IC50, HepG2 cytotoxicity
[3] = 2nd round, maximal inhibition in dose series
[4] = first series of dose-response columns, fraction of control
[5] = first series, fraction of control
[6] = sheet 2nd round, Broad compounds, dose response
[7] = second series of dose-response columns, fraction of control
[8] = second series, fraction of control
[9] = sheet 2nd round, maximal inhibition in dose response

C/C=C/c1ccc([C@H]2[C@@H](CO)N(CC3CCCCC3)[C@@H]2CNC(C)C)cc1 [BRD-K19633528-001-01-3]
PbLuc_max_inhibition (%) [1, 3]: 58% | normalized signal at 0.000508053 (first series) ([1]; concentration 0.000508053, first replicate series, fraction of control): 1 | normalized signal at 0.000508053 (second series) ([1]; concentration 0.000508053, second replicate series, fraction of control): 0.834 | normalized signal at 0.00152416 (first series) ([1]; concentration 0.00152416, first replicate series, fraction of control): 0.9222 | normalized signal at 0.00152416 (second series) ([1]; concentration 0.00152416, second replicate series, fraction of control): 0.7558 | normalized signal at 0.00457247 (first series) ([1]; concentration 0.00457247, first replicate series, fraction of control): 0.9507 | normalized signal at 0.00457247 (second series) ([1]; concentration 0.00457247, second replicate series, fraction of control): 1.046 | normalized signal at 0.0137174 (first series) ([1]; concentration 0.0137174, first replicate series, fraction of control): 0.9718 | normalized signal at 0.0137174 (second series) ([1]; concentration 0.0137174, second replicate series, fraction of control): 0.826 | normalized signal at 0.0411523 (first series) ([1]; concentration 0.0411523, first replicate series, fraction of control): 1.123 | normalized signal at 0.0411523 (second series) ([1]; concentration 0.0411523, second replicate series, fraction of control): 1.151 | normalized signal at 0.123457 (first series) ([1]; concentration 0.123457, first replicate series, fraction of control): 1.141 | normalized signal at 0.123457 (second series) ([1]; concentration 0.123457, second replicate series, fraction of control): 0.8556 | normalized signal at 0.37037 (first series) ([1]; concentration 0.37037, first replicate series, fraction of control): 1.177 | normalized signal at 0.37037 (second series) ([1]; concentration 0.37037, second replicate series, fraction of control): 1.086 | normalized signal at 1.11111 (first series) ([1]; concentration 1.11111, first replicate series, fraction of control): 1.183 | normalized signal at 1.11111 (second series) ([1]; concentration 1.11111, second replicate series, fraction of control): 0.9808 | normalized signal at 3.33333 (first series) ([1]; concentration 3.33333, first replicate series, fraction of control): 1.3301 | normalized signal at 3.33333 (second series) ([1]; concentration 3.33333, second replicate series, fraction of control): 0.9519 | normalized signal at 10 (first series) ([1]; concentration 10, first replicate series, fraction of control): 0.5856 | normalized signal at 10 (second series) ([1]; concentration 10, second replicate series, fraction of control): 0.4223 | IC50 ([1]; 2nd round, Broad DOS compounds, unit not printed (dose series head 10 to 0.000508053)): > 10 µM | Tox_max_inhibition (%) [2, 3]: 16% | IC50 ([2]; 2nd round, unit inferred): > 10 µM

C[C@@H]1CN([C@@H](C)CO)C(=O)c2cccc(NC(=O)C3CC3)c2O[C@@H]1CN(C)C(=O)Nc1ccc(C(F)(F)F)cc1 [BRD-K19818397-001-01-8]
normalized signal at concentration 10 [1, 4]: 1.071 | normalized signal at concentration 0.000508053 [1, 5]: 1.034 | normalized signal at concentration 0.00152416 [1, 5]: 0.8006 | normalized signal at concentration 0.00457247 [1, 5]: 1.0648 | normalized signal at concentration 0.0137174 [1, 5]: 1.106 | normalized signal at concentration 0.0411523 [1, 5]: 1.032 | normalized signal at concentration 0.123457 [1, 5]: 1.068 | normalized signal at concentration 0.37037 [1, 5]: 0.8949 | normalized signal at concentration 1.11111 [1, 5]: 0.9694 | normalized signal at concentration 3.33333 [1, 5]: 1.103 | IC50 [1, 6]: > 10 µM | normalized signal at concentration 10 [1, 7]: 1.03 | normalized signal at concentration 0.000508053 [1, 8]: 1.064 | normalized signal at concentration 0.00152416 [1, 8]: 1.02 | normalized signal at concentration 0.00457247 [1, 8]: 1.098 | normalized signal at concentration 0.0137174 [1, 8]: 0.9383 | normalized signal at concentration 0.0411523 [1, 8]: 0.9903 | normalized signal at concentration 0.123457 [1, 8]: 1.126 | normalized signal at concentration 0.37037 [1, 8]: 1.0101 | normalized signal at concentration 1.11111 [1, 8]: 1.172 | normalized signal at concentration 3.33333 [1, 8]: 1.008 | PbLuc_max_inhibition (%) [1, 9]: 20% | IC50 ([2]; sheet 2nd round): > 10 µM | Tox_max_inhibition (%) [2, 9]: 16%

O=S(=O)(c1cccs1)N1CCCCN2[C@H](CO)[C@H](c3ccc(/C=C/c4ccccc4)cc3)[C@H]2C1 [BRD-K20449903-001-01-6]
normalized signal at concentration 10 [1, 4]: 0.52 | normalized signal at concentration 0.000508053 [1, 5]: 1.07 | normalized signal at concentration 0.00152416 [1, 5]: 1.07 | normalized signal at concentration 0.00457247 [1, 5]: 0.84 | normalized signal at concentration 0.0137174 [1, 5]: 1.09 | normalized signal at concentration 0.0411523 [1, 5]: 0.93 | normalized signal at concentration 0.123457 [1, 5]: 1.01 | normalized signal at concentration 0.37037 [1, 5]: 1.01 | normalized signal at concentration 1.11111 [1, 5]: 1.05 | normalized signal at concentration 3.33333 [1, 5]: 1.18 | IC50 [1, 6]: > 10 µM | normalized signal at concentration 10 [1, 7]: 0.70 | normalized signal at concentration 0.000508053 [1, 8]: 0.94 | normalized signal at concentration 0.00152416 [1, 8]: 1.05 | normalized signal at concentration 0.00457247 [1, 8]: 0.96 | normalized signal at concentration 0.0137174 [1, 8]: 1.06 | normalized signal at concentration 0.0411523 [1, 8]: 1.19 | normalized signal at concentration 0.123457 [1, 8]: 1.23 | normalized signal at concentration 0.37037 [1, 8]: 0.91 | normalized signal at concentration 1.11111 [1, 8]: 1.04 | normalized signal at concentration 3.33333 [1, 8]: 1.04 | PbLuc_max_inhibition (%) [1, 9]: 48% | IC50 ([2]; sheet 2nd round): > 10 µM | Tox_max_inhibition (%) [2, 9]: 9%

Cc1cccc(-c2ccc(C3[C@@H]4CN(C(=O)CN(C)C)C[C@H]3N4)cc2)c1 (stereo partly drawn) [BRD-K25161260-019-01-1]
normalized signal at concentration 10 [1, 4]: 0.87 | normalized signal at concentration 0.000508053 [1, 5]: 0.66 | normalized signal at concentration 0.00152416 [1, 5]: 0.79 | normalized signal at concentration 0.00457247 [1, 5]: 0.92 | normalized signal at concentration 0.0137174 [1, 5]: 0.97 | normalized signal at concentration 0.0411523 [1, 5]: 0.91 | normalized signal at concentration 0.123457 [1, 5]: 0.95 | normalized signal at concentration 0.37037 [1, 5]: 0.78 | normalized signal at concentration 1.11111 [1, 5]: 0.60 | normalized signal at concentration 3.33333 [1, 5]: 0.90 | IC50 [1, 6]: > 10 µM | normalized signal at concentration 10 [1, 7]: 0.87 | normalized signal at concentration 0.000508053 [1, 8]: 0.94 | normalized signal at concentration 0.00152416 [1, 8]: 0.94 | normalized signal at concentration 0.00457247 [1, 8]: 1.11 | normalized signal at concentration 0.0137174 [1, 8]: 1.12 | normalized signal at concentration 0.0411523 [1, 8]: 1.00 | normalized signal at concentration 0.123457 [1, 8]: 1.11 | normalized signal at concentration 0.37037 [1, 8]: 0.98 | normalized signal at concentration 1.11111 [1, 8]: 0.83 | normalized signal at concentration 3.33333 [1, 8]: 0.97 | PbLuc_max_inhibition (%) [1, 9]: 40% | IC50 ([2]; sheet 2nd round): > 10 µM | Tox_max_inhibition (%) [2, 9]: 5.5%
